Among the data in patent publication EP0432183B1, “NEW CITYDIN-5'-DIPHOSPHATE ALKANOLS AND GLYCEROLS, A PROCESS FOR PREPARING THEM AND THEIR USE” (Clarion Pharmaceuticals, Inc., priority 1988, dated 1990) are inhibition values, retold here.

The test has as its system Ehrlich Ascites-Tumorzellen. Put plainly: Concentration-dependent growth inhibition of Ehrlich ascites tumour cells (antiproliferative effect). Conditions: Wachstumshemmung, read-out: Hemmung (%); for inhibition at 3 µM: Konzentration 3 μmolar; for inhibition at 10 µM: Konzentration 10 μmolar; for inhibition at 30 µM: Konzentration 30 μmolar; for inhibition at 100 µM: Konzentration 100 μmolar. The class given is cell-based. The text has this: Zur Bestimmung der cytostatischen Wirkung wurde die antiproliferative Wirkung bei Ehrlich-Ascites Tumorzellen untersucht. Dabei zeigte sich, daß die erfindungsgemäßen Verbindungen ausgezeichnete cytostatische Wirkung aufweisen. Sie können daher allein oder in Mischung mit anderen Wirksubstanzen in Form üblicher galenischer Zubereitungen als Cytostatika oder Virustatika eingesetzt werden.
Konzentrationsabhängige Wachstumshemmung von Ehrlich Ascites-Tumorzellen.

Take `CCCCCCCCCCCCCCCCOP(=O)(O)OP(=O)(O)OC[C@H]1O[C@@H](n2ccc(N)nc2=O)[C@H](O)[C@@H]1O` [Bsp. 1, Cytidin-5'-diphosphat-hexadekanol]: the inhibition at 3 µM amounted to 12%, the inhibition at 10 µM was 19%, the inhibition at 30 µM came to 46% and the inhibition at 100 µM worked out at 31%.
The corresponding values for `CCCCCCCCCCCCCCCCOCC(COP(=O)(O)OP(=O)(O)OC[C@H]1O[C@@H](n2ccc(N)nc2=O)[C@H](O)[C@@H]1O)OCC(F)(F)F` (stereo partly shown) [Bsp. 2, Cytidin-5'-diphosphat-1-0-hexadecyl-2-0-(2,2,2-trifluorethyl)glycerol] are 9.5%, 30%, 86% and 100%.
In the case of `CCCCCCCCCCCCCCCCOCC(CCl)OP(=O)(O)OP(=O)(O)OC[C@H]1O[C@@H](n2ccc(N)nc2=O)[C@H](O)[C@@H]1O` (stereo partly shown) [Bsp. 3, Cytidin-5'-diphosphat-3-chlor-3-desoxy-1-0-hexadecylglycerol], the inhibition at 3 µM was 12%, the inhibition at 10 µM is 17%, the inhibition at 30 µM worked out at 29% and the inhibition at 100 µM was found to be 69%.
For the compound `CCCCCCCCCCCCCCCCOCC(Cl)COP(=O)(O)OP(=O)(O)OC[C@H]1O[C@@H](n2ccc(N)nc2=O)[C@H](O)[C@@H]1O` (stereo partly shown) [Bsp. 4, Cytidin-5'-diphosphat-2-chlor-2-desoxy-1-0-hexadecylglycerol], the inhibition at 3 µM was 18%, the inhibition at 10 µM turned out to be 38%, the inhibition at 30 µM was determined as 67% and the inhibition at 100 µM is 94%.
